Results as given in article PMC12051030, “Identification of inhibitors of the Salmonella FraB deglycase, a drug target” (FEBS Open Bio, 2025).

Columns and labels:
[1] = target: His6‐FraB (Salmonella FraB deglycase) (Salmonella enterica subsp. enterica serovar Typhimurium, UniProt Q8ZLD0); experiment: FraB-G6PD coupled assay, Michaelis–Menten analysis for K I and mode of inhibition; assay type: biochemical
Description: To determine the K I of each inhibitor, 29 μL of master mix was added to two rows of a 384‐well Greiner plate, using a single‐channel pipette, and incubated at 20 °C for 20 min. A 12‐channel pipette was then used to transfer and mix 1 μL of varying [6‐P‐F‐Asp] to all 48 wells. The final reaction (30 μL) consisted of 25 mM HEPES pH 8.0 at 20 °C, 5 mM MgCl2, 0.1 mM EGTA, 0.5 mM NAD^+, 1 mU G6PD, 100 nM His6‐FraB, varying (6‐P‐F‐Asp) (between 8 and 12 concentrations), and varying [inhibitor] (between three and five concentrations) in 10% (v/v) DMSO. NADH fluorescence was monitored every 10 s for 10 min total on a SPARK® multi‐mode multiplate reader (Tecan), as described above, and plotted against time. Slopes of the linear range of each curve were converted to initial velocities, as described above, that were then plotted against [6‐P‐F‐Asp]. A hyperbolic curve was then fitted to the data to obtain the k cat and K m values according to the formula: v o = (V max × [S])/(K m + [S]).
To determine the correlation between the observed and expected initial velocities (Fig. S5A), these values were exported from Kaleidagraph, plotted against one another, and a curve was fit using the formula: y = mx + b. The differences between observed and expected initial velocities (residuals) were then depicted as box‐and‐whisker plots (Fig. S5B). Lineweaver‐Burk plots were generated by graphing 1/v o versus 1/[S] and curves were fit to the data with Kaleidagraph using the formula: 1/v o = (Km/V max).(1/[S]) + (1/V max). The k cat and K m parameters were then converted into α′ values by dividing the k cat of the control (no inhibitor) by either itself (α′= 1) or the k cat of test samples with variable [inhibitor]. Those α′ values were plotted against [inhibitor] and K I values were determined from the equation α = 1 + [I]/K I.
The initial velocities used to generate the Michaelis–Menten plots were also employed to obtain the IC50 vs [S]/K m plots. For a given [S], initial velocities were converted into relative activities and plotted versus [inhibitor]. […] The IC50 values determined from the IC50 vs [S]/K m plots were then used to plot 1/IC50 versus v o/V max. A curve was fit to the data using the formula: y = mx + b. The Y‐intercept of the 1/IC50 versus v o/V max plot is equal to 1/K IC, and the slope, for mixed inhibitors, is equal to 1/K IU – 1/K IC. […] Data analyses were performed as described above (see Tables S1–S7 for curve‐fit errors and goodness‐of‐fit values).

Salmonella tolC mutant = experiment: Growth assay, Salmonella tolC mutant in wild‐type or fra island mutant background; assay type: cell-based; conditions: early finding; could not be replicated after multiple attempts with stocks from different suppliers (data not shown)
From the text: We sought to examine the possibility that some of the hits in the biochemical HTS were not picked up in the cell‐based assays due to efficient efflux mechanisms in Salmonella. Because TolC is an outer membrane protein channel that is essential for the ability of seven of the 10 inner membrane drug‐efflux transporters to expel structurally diverse molecules, we generated a Salmonella tolC mutant and tested the 121 compounds that we purchased (Sabag‐Daigle, A. & Ahmer, B. M. M., unpublished results). The tests were conducted in parallel using the tolC mutant in a wild‐type or fra island mutant background; the latter lacks the entire fra locus and is incapable of catabolizing F‐Asn and forming 6‐P‐F‐Asp. Thus, any inhibitor specific for FraB (and which was being effluxed in the wild‐type) will inhibit the tolC mutant in a wild‐type but not the fra island mutant background. A caveat is that efflux of compounds may also be achieved via TolC‐independent drug‐efflux pumps.

Sequence of His6‐FraB (Salmonella FraB deglycase) (Q8ZLD0 entry or part of it): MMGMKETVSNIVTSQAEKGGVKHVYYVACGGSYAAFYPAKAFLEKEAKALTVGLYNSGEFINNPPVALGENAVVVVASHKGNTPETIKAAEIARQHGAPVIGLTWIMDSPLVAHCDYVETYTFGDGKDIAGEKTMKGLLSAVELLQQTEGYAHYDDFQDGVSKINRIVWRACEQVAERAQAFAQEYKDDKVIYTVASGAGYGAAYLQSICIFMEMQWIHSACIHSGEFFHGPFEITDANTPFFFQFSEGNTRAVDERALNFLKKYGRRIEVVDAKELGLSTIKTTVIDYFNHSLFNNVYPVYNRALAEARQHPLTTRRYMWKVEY

**Q.** How did the “change of IC50 values with increasing [S]/K m” value ([1]; 'this trend' = IC50 does not vary with [S]/K m, change evident only from 0.2 to 1.6× [S]/K m) turn out when `Fc1ccc(-c2nn3c(-c4ccccn4)nnc3s2)cc1` [3469:N17, 6‐(4‐fluorophenyl)‐3‐pyridin‐2‐yl‐[1,2,4]triazolo[3,4‐b][1,3,4]thiadiazole] was run?
**A.** modest decrease

**Q.** And the “slope in plots of 1/IC50 vs. v o/V max” value ([1]; Fig. S12)?
**A.** weakly positive

**Q.** And the IC50 ([1]; IC50 (IC50 versus [S]/Km plots), Trial 1, 6-P-F-Asp 7.38 µM, S/Km 0.175714, unit from Fig. S11 axis)?
**A.** 47.9 µM

**Q.** And the IC50 ([1]; IC50 (IC50 versus [S]/Km plots), Trial 1, 6-P-F-Asp 15.7 µM, S/Km 0.37381, unit from Fig. S11 axis)?
**A.** 45.4 µM

**Q.** What about the IC50 ([1]; IC50 (IC50 versus [S]/Km plots), Trial 1, 6-P-F-Asp 31.3 µM, S/Km 0.745238, unit from Fig. S11 axis) of the same compound?
**A.** 40.9 µM

**Q.** And the IC50 ([1]; IC50 (IC50 versus [S]/Km plots), Trial 1, 6-P-F-Asp 62.5 µM, S/Km 1.488095, unit from Fig. S11 axis)?
**A.** 34.9 µM

**Q.** And the IC50 ([1]; IC50 (IC50 versus [S]/Km plots), Trial 1, 6-P-F-Asp 125 µM, S/Km 2.97619, unit from Fig. S11 axis)?
**A.** 32.7 µM

**Q.** And the IC50 ([1]; IC50 (IC50 versus [S]/Km plots), Trial 1, 6-P-F-Asp 250 µM, S/Km 5.952381, unit from Fig. S11 axis)?
**A.** 34.1 µM

**Q.** What about the IC50 ([1]; IC50 (IC50 versus [S]/Km plots), Trial 1, 6-P-F-Asp 500 µM, S/Km 11.90476, unit from Fig. S11 axis) of the same compound?
**A.** 30.1 µM

**Q.** And the IC50 ([1]; IC50 (IC50 versus [S]/Km plots), Trial 1, 6-P-F-Asp 750 µM, S/Km 17.85714, unit from Fig. S11 axis)?
**A.** 33.4 µM

**Q.** And the IC50 ([1]; IC50 (IC50 versus [S]/Km plots), Trial 1, 6-P-F-Asp 1000 µM, S/Km 23.80952, unit from Fig. S11 axis)?
**A.** 32.7 µM

**Q.** And the IC50 ([1]; IC50 (IC50 versus [S]/Km plots), Trial 1, 6-P-F-Asp 2000 µM, S/Km 47.61905, unit from Fig. S11 axis)?
**A.** 32.5 µM

**Q.** And the IC50 ([1]; IC50 (IC50 versus [S]/Km plots), Trial 1, 6-P-F-Asp 3000 µM, S/Km 71.42857, unit from Fig. S11 axis)?
**A.** 39.3 µM

**Q.** What about the IC50 ([1]; IC50 (IC50 versus [S]/Km plots), Trial 2, 6-P-F-Asp 7.38 µM, S/Km 0.175714, unit from Fig. S11 axis) of the same compound?
**A.** 36.6 µM

**Q.** What about the IC50 ([1]; IC50 (IC50 versus [S]/Km plots), Trial 2, 6-P-F-Asp 15.7 µM, S/Km 0.37381, unit from Fig. S11 axis) of the same compound?
**A.** 44.8 µM

**Q.** What about the IC50 ([1]; IC50 (IC50 versus [S]/Km plots), Trial 2, 6-P-F-Asp 31.3 µM, S/Km 0.745238, unit from Fig. S11 axis) of the same compound?
**A.** 48.2 µM

**Q.** What about the IC50 ([1]; IC50 (IC50 versus [S]/Km plots), Trial 2, 6-P-F-Asp 62.5 µM, S/Km 1.488095, unit from Fig. S11 axis) of the same compound?
**A.** 48.5 µM

**Q.** And the IC50 ([1]; IC50 (IC50 versus [S]/Km plots), Trial 2, 6-P-F-Asp 125 µM, S/Km 2.97619, unit from Fig. S11 axis)?
**A.** 37.7 µM

**Q.** And the IC50 ([1]; IC50 (IC50 versus [S]/Km plots), Trial 2, 6-P-F-Asp 250 µM, S/Km 5.952381, unit from Fig. S11 axis)?
**A.** 34 µM

**Q.** What about the IC50 ([1]; IC50 (IC50 versus [S]/Km plots), Trial 2, 6-P-F-Asp 500 µM, S/Km 11.90476, unit from Fig. S11 axis) of the same compound?
**A.** 32.9 µM

**Q.** And the IC50 ([1]; IC50 (IC50 versus [S]/Km plots), Trial 2, 6-P-F-Asp 750 µM, S/Km 17.85714, unit from Fig. S11 axis)?
**A.** 35.9 µM

**Q.** And the IC50 ([1]; IC50 (IC50 versus [S]/Km plots), Trial 2, 6-P-F-Asp 1000 µM, S/Km 23.80952, unit from Fig. S11 axis)?
**A.** 34.9 µM

**Q.** And the IC50 ([1]; IC50 (IC50 versus [S]/Km plots), Trial 2, 6-P-F-Asp 2000 µM, S/Km 47.61905, unit from Fig. S11 axis)?
**A.** 39.2 µM

**Q.** What about the IC50 ([1]; IC50 (IC50 versus [S]/Km plots), Trial 2, 6-P-F-Asp 3000 µM, S/Km 71.42857, unit from Fig. S11 axis) of the same compound?
**A.** 42.2 µM

**Q.** And the IC50 ([1]; IC50, mean and standard deviation of all IC50 values in IC50 vs [S]/Km plot, trial shown in Fig. S11 panels M-X)?
**A.** 40 ± 6 µM

**Q.** What about the Ki ([1]; K I, from Michaelis–Menten analysis of FraB at different inhibitor concentrations, average and standard error from two measurements) of the same compound?
**A.** 28.5 ± 3.5 µM

**Q.** What about the Ki ([1]; KI from α′ vs [I] plot, trial shown in Fig. S11 panels M-X) of the same compound?
**A.** 25 µM

**Q.** And the Ki ([1]; KI from α′ vs [I] plot, trial shown in Fig. S11 panels Y-AJ)?
**A.** 32 µM

**Q.** What about the “K IU/K IC ratio” value ([1]; average (±SE), from 1/IC50 versus v o/V max plots) of the same compound?
**A.** 0.7 ± 0.1

**Q.** And the mode of inhibition ([1]; kinetic analyses (Lineweaver‐Burk, α′ vs [I], IC50 vs [S]/K m, 1/IC50 vs v o/V max))?
**A.** mixed‐type uncompetitive

**Q.** What about the “inhibition of growth of Salmonella tolC, fra‐dependent” value (Salmonella tolC mutant) of the same compound?
**A.** initially shown to inhibit the growth of Salmonella tolC in a fra‐dependent manner
